This is an account of results in patent US9353082B2, “Pharmaceutical compounds” (BIAL—PORTELA & CA, S.A., priority 2008, dated 2016).

Molecules are shown by their SMILES. Where a name gives a salt, the structure may show the parent alone.

The assay has as its target T1, FAAH (Rattus norvegicus, UniProt P97612).
T1 construct: Frozen brains (without cerebellum) from Wistar rats were used; from tissue; host or cells: Wistar rat brain (without cerebellum), washed membrane pellets
T1 sequence (P97612 1-579): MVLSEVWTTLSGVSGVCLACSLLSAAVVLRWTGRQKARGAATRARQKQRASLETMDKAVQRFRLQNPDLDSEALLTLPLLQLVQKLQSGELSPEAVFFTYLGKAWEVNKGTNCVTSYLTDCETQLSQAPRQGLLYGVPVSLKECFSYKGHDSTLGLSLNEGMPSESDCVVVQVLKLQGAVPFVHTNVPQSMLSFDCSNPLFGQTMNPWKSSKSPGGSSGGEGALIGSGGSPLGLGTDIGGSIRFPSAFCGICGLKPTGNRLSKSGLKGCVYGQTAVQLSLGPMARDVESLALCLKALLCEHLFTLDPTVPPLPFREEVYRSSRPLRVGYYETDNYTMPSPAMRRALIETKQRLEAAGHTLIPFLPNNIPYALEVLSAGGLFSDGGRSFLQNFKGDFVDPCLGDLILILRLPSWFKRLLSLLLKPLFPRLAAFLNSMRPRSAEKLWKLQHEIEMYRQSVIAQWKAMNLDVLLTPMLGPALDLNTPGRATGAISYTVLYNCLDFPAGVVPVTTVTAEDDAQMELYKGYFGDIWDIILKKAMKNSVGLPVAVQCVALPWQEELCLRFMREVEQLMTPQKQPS
Briefly: In vitro FAAH activity in rat brain membranes, 3H-AEA substrate, % of control. The assay is classed as biochemical, Wistar rats. The following applies: low value = strong inhibitor; for In Vitro FAAH activity, 10 uM: 10 uM test compound; for In Vitro FAAH activity, 100 nM: 100 nM test compound. On the procedure:
3. Biological Efficacy of Compounds of the Invention The in vitro test was performed according to the protocol described below. The controls for both in vitro and in vivo were the reaction mix minus the test compounds. Therefore, a low value in Table 1 below for the test compounds indicates a strong inhibitor.
The in vitro pharmaceutical FAAH activity was determined according to the following method:
Frozen brains (without cerebellum) from Wistar rats were used, and each brain was homogenized in 15 ml 1 mM MgCL2, […] HEPES pH 7.0 with Potter Elvejhem (8 strokes at 500 rpm). Homogenates were centrifuged for 20 min at 36000 g at 4° C. (Beckman, 70Ti rotor). Pellets were resuspended in 15 ml of the same buffer and centrifuged under the same conditions. Pellets were resuspended in 15 ml of the same buffer and incubated for 15 min at 37° C. after which they were centrifuged for 20 min at 36000 g at 4° C. Each pellet was then resuspended in 15 ml 3 mM MgCl2, 1 mM EDTA, 50 mM Tris pH 7.4 and protein determined with BioRad Protein Assay (BioRad) using a standard curve of BSA (50-250 μg/ml). The membrane suspensions were aliquoted and stored at −80° C.
The FAAH activity was determined using AEA (labelled with 3H in the ethanolamine part of the molecule) as substrate and measuring the 3H-ethanolamine formed. Reaction mix (total volume of 200 up contained: 2 μM AEA (2 μM AEA+5 nM 3H-AEA), 0.1% fatty acid free BSA, 5 μg protein, in 1 mM EDTA, 10 mM Tris pH 7.6 and 10 μM or 0.1 μM compounds. Stock solutions of the compounds to test (10 mM) were prepared in 100% DMSO and the DMSO concentration in the assay was 0.1%. After a 15 min preincubation period at 37° C., reaction was started by the addition of the substrate solution ([…]). Reaction was carried out for 10 min before termination by the addition of 400 μl activated charcoal suspension (8 g charcoal in 32 ml 0.5 M HCl in continuous agitation). After a 30 min incubation period at room temperature with agitation, charcoal was sedimented by centrifugation in microfuge (10 min at 13000 rpm). 200 μl of the supernatant were added to 800 μl Optiphase Supermix scintillation cocktail previously distributed in 24-well plates. Counts per minute (cpm) were determined in Microbeta TriLux scintillation counter (10 min counting or until s=2).
In each assay blanks (no protein, usually below 200 cpm) and controls (no compound) were present. The results are reported in Table 1 as % of control after blank subtraction.

With `COc1ccc(NC(=O)n2ccc(-c3ccc(-c4ccccc4)cc3)n2)cc1` [Compound 23, 3-(biphenyl-4-yl)-N-(4-methoxyphenyl)-1H-pyrazole-1-carboxamide], the “In Vitro FAAH activity, 10 uM” value is listed as 93 % of control.

Regarding `CC1(C)COCN1C(=O)n1cnc(-c2ccccc2)n1` [Compound 285, (4,4-dimethyloxazolidin-3-yl)(3-phenyl-1H-1,2,4-triazol-1-yl)methanone], for the setting “rat brain membranes, compound at 100 nM”, the “In Vitro 100 nM (FAAH activity, % of control)” value is reported as 85.4 % of control. As to `CON(C)C(=O)n1nnc2ccccc21` [Compound 169, N-methoxy-N-methyl-1H-benzo[d][1,2,3]triazole-1-carboxamide], the “In Vitro FAAH activity, 100 nM” value is 73.6 % of control. For the compound `Cl.O=C(N1CCN(Cc2ccccc2)CC1)n1cnc(-c2ccc(OCc3ccccc3)cc2)n1` [Compound 125, (3-(4-(benzyloxy)phenyl)-1H-1,2,4-triazol-1-yl)(4-benzylpiperazin-1-yl)methanone hydrochloride], the “In Vitro FAAH activity, 100 nM” value was 53.5 % of control. With `O=C(N1Cc2ccccc2C1)n1nnc2ccccc21` [Compound 174, (1H-benzo[d][1,2,3]triazol-1-yl)(isoindolin-2-yl)methanone], the “In Vitro FAAH activity, 100 nM” value is listed as 0.7 % of control.

In the case of `O=C(Nc1ccc(Cl)cc1)n1nnc2ccccc21` [Compound 62, N-(4-chlorophenyl)-1H-benzo[d][1,2,3]triazole-1-carboxamide], the “In Vitro FAAH activity, 100 nM” value was 93.7 % of control. `CN(C(=O)n1cnc(-c2ccc(F)cc2F)n1)c1ccc(F)cc1F` [Compound 80, N,3-bis(2,4-difluorophenyl)-N-methyl-1H-1,2,4-triazole-1-carboxamide]: the “In Vitro FAAH activity, 100 nM” value was 89.5 % of control.

As for `O=C(Nc1ccc(-c2ccccc2)cc1)n1ccc(-c2ccccc2)n1` [Compound 15, N-(biphenyl-4-yl)-3-phenyl-1H-pyrazole-1-carboxamide], the “In Vitro FAAH activity, 100 nM” value is 103.8 % of control and the “In Vitro FAAH activity, 10 uM” value is 66.9 % of control. `O=C(N1CCOCC1)n1cc(-c2ccccc2)nn1` [Compound 89, morpholino(4-phenyl-1H-1,2,3-triazol-1-yl)methanone]: the “In Vitro FAAH activity, 100 nM” value is given as 4.5 % of control. Regarding `CC(C)N(Cc1ccccc1)C(=O)n1cnc(-c2cccc(O)c2)c1` [Compound 265, N-benzyl-4-(3-hydroxyphenyl)-N-isopropyl-1H-imidazole-1-carboxamide], the “In Vitro FAAH activity, 100 nM” value is 99.6 % of control. For the compound `CN(C(=O)n1nnc2ccccc21)c1ccc(N2CCOCC2)cc1` [Compound 76, N-methyl-N-(4-morpholinophenyl)-1H-benzo[d][1,2,3]triazole-1-carboxamide], the “In Vitro FAAH activity, 100 nM” value is 97.1 % of control. `O=C(N[C@H]1CN2CCC1CC2)n1nnc2ccccc21` [Compound 142, (R)—N-(quinuclidin-3-yl)-1H-benzo[d][1,2,3]triazole-1-carboxamide hydrochloride]: the “In Vitro FAAH activity, 100 nM” value is 101.8 % of control. On the same count and under the same terms, in the case of `CN(C(=O)n1cnc(-c2cccc(OCCN3CCNCC3)c2)c1)c1ccccc1.Cl.Cl` [Compound 200, N-methyl-N-phenyl-4-(3-(2-(piperazin-1-yl)ethoxy)phenyl)-1H-imidazole-1-carboxamide dihydrochloride] it was 100.1 % of control; in that of `CN(C)C(=O)n1cnc(-c2ccc(Oc3ccc(C(N)=O)cc3)cc2)n1` [Compound 146, 3-(4-(4-carbamoylphenoxy)phenyl)-N,N-dimethyl-1H-1,2,4-triazole-1-carboxamide], 77.1 % of control; in that of `CN(C(=O)n1cnc(-c2cccc3ccccc23)n1)c1ccccc1` [Compound 192, N-methyl-3-(naphthalen-1-yl)-N-phenyl-1H-1,2,4-triazole-1-carboxamide], 64.6 % of control. With `CN(C(=O)n1nnc2cc(-c3cccc(C#N)c3)ccc21)C1CCCCC1` [Compound 95, 5-(3-cyanophenyl)-N-cyclohexyl-N-methyl-1H-benzo[d][1,2,3]triazole-1-carboxamide], the “In Vitro FAAH activity, 100 nM” value is given as 0.7 % of control. With `COc1ccc(-c2ncn(C(=O)N3CCOCC3)n2)cc1` [Compound 65, (3-(4-methoxyphenyl)-1H-1,2,4-triazol-1-yl)(morpholino)methanone], the “In Vitro FAAH activity, 100 nM” value is 86.5 % of control.

Consider `COc1ccc(-c2ncn(C(=O)N(C)c3ccccc3)n2)cc1` [Compound 64, 3-(4-methoxyphenyl)-N-methyl-N-phenyl-1H-1,2,4-triazole-1-carboxamide], for which the “In Vitro FAAH activity, 100 nM” value is listed as 67.9 % of control. Regarding `COc1ccc(-c2ncn(C(=O)N3CCN(c4ccc(F)cc4)CC3)n2)cc1` [Compound 211, (4-(4-fluorophenyl)piperazin-1-yl)(3-(4-methoxyphenyl)-1H-1,2,4-triazol-1-yl)methanone], the “In Vitro FAAH activity, 100 nM” value is recorded as 1.9 % of control. Consider `CN1CCN(C(=O)n2nnc3ccccc32)CC1.Cl` [Compound 83, (1H-benzo[d][1,2,3]triazol-1-yl)(4-methylpiperazin-1-yl)methanone hydrochloride], for which the “In Vitro FAAH activity, 100 nM” value is recorded as 2.5 % of control. For `Cl.O=C(N1CCN(Cc2ccccc2)CC1)n1cnc(-c2ccccc2)n1` [Compound 124, (4-benzylpiperazin-1-yl)(3-phenyl-1H-1,2,4-triazol-1-yl)methanone hydrochloride], the “In Vitro FAAH activity, 100 nM” value is recorded as 1.5 % of control. The same measure, in the same setting: in the case of `O=C(N1CCN(c2ccccc2)CC1)n1cnc(-c2ccccc2)c1` [Compound 101, (4-phenyl-1H-imidazol-1-yl)(4-phenylpiperazin-1-yl)methanone] it was 0.5 % of control. With `CN(Cc1ccccc1)C(=O)n1cnc(-c2cccs2)n1` [Compound 181, N-benzyl-N-methyl-3-(thiophen-2-yl)-1H-1,2,4-triazole-1-carboxamide], the “In Vitro FAAH activity, 100 nM” value is reported as 0.9 % of control. Turning to `Cl.O=C(N1CCC(CCN2CCCC2)CC1)n1nnc2ccccc21` [Compound 105, (1H-benzo[d][1,2,3]triazol-1-yl)(4-(2-(pyrrolidin-1-yl)ethyl)piperidin-1-yl)methanone hydrochloride], the “In Vitro FAAH activity, 100 nM” value is 64.7 % of control. As for `COc1cccc(OCC2CCN(C(=O)n3nnc4ccccc43)CC2)c1` [Compound 153, (1H-benzo[d][1,2,3]triazol-1-yl)(4-((3-methoxyphenoxy)methyl)piperidin-1-yl)methanone], the “In Vitro FAAH activity, 100 nM” value is given as 0 % of control.

As for `COc1cccc(OC2CCN(C(=O)n3nnc4ccccc43)CC2)c1` [Compound 166, (1H-benzo[d][1,2,3]triazol-1-yl)(4-(3-methoxyphenoxy)piperidin-1-yl)methanone], the “In Vitro FAAH activity, 100 nM” value is listed as 0 % of control. `CC1(C)COCN1C(=O)n1nnc2cc(-c3cccc(C(N)=O)c3)ccc21` [Compound 243, 3-(1-(4,4-dimethyloxazolidine-3-carbonyl)-1H-benzo[d][1,2,3]triazol-5-yl)benzamide]: the “In Vitro FAAH activity, 100 nM” value is given as 39.7 % of control. As for `CC(C)N(Cc1ccccc1)C(=O)n1cnc(-c2ccc(Cl)cc2)c1` [Compound 249, N-benzyl-4-(4-chlorophenyl)-N-isopropyl-1H-imidazole-1-carboxamide], the “In Vitro FAAH activity, 100 nM” value was 95.8 % of control.
